# B1: interferon Y: interferon Y (protein, UniProt P01579 24-161, looked up)
# Interferon gamma: QDPYVKEAENLKKYFNAGHSDVADNGTLFLGILKNWKEESDRKIMQSQIVSFYFKLFKNFKDDQSIQKSVETIKEDMNVKFFNSNKKKRDDFEKLTNYSVTDLNVQRKAIHELIQVMAELSPAAKTGKRKRSQMLFRG
# Assays:
# [1] = test system: OM-10.1 cells (HIV-1 activation); assay: Supernatant reverse transcriptase activity / HIV-1 activation in OM-10.1 cultures pretreated with test compound then TNF-α induced (Example 1); format: cell-based; details: for stimulation index (SI) value of the reverse transcriptase activity: TNF-α treated vs non-TNF-α medium culture
# Source text: The cellular pathways involved in mediating the activating signal from the plasma membrane to the integrated virus, resulting in HIV-1 expression, are much less clear. Recently, the development of a reliable and simple system for evaluating compounds that could prevent activation of latent HIV was reported at the National […] (NCDDG)/AIDS by P. Feorino, S. T. Butera, T. M. Folks, and R. F. Schinazi, San Diego, Calif., Nov. 3-7, 1991. […] The expression of CD4+ on the cell surface and the activity of reverse transcriptase are used as markers for quantitating viral expression. Alternatively, other HIV markers, such as protease activity, which are known to those of skill in the art can be used. OM-10.1 cells remain CD4^+ until viral activation and respond to tumor necrosis factor induction, and therefore, these cultures are used to conveniently and rapidly examine pharmacologics for an ability to prevent CD4^+ down modulation (decrease in expression of CD4^+ on the cell surface) and HIV-1 expression.
# Example 1 was performed as described by Butera ST, et al., J. Virol. 1991;65:4645-4653. Test compounds were first dissolved in 100% DMSO to the indicated stock concentrations below in Table I. The stock solution was then diluted in tissue culture starting at 1:100(10/-2) and proceeding on as indicated.
# OM-10.1 cells were then pretreated for 4 hours with the test compounds prior to TNF-α induction. TNF-α was added at 20 U/ml and induced cells were examined at 24 hours for evidence of surface CD4 down-modulation, as an indication of viral activation. Cells were also harvested after 24 hours of TNF-α induction for drug toxicity, being labeled with ^3 H thymidine during the final 18 hours in culture. At […], cell-free culture supernatant was collected for reverse transcriptase determination, as a further verification of the extent of HIV-1 activation. CD4 surface staining for flow cytometry and reverse transcriptase analysis were performed as described.
# OM-10.1 cells = assay: Return to latency of TNF-α pre-activated OM-10.1 cells, percent CD4-positive cells by flow cytometry (Example 2); format: cell-based
# Protocol: Moreover, in Example 2 the experiment was extended through 96 hours after the removal of TNF-α.
# [2] = test system: OM-10.1 cells (HIV-1 activation); details: poster Nov. 3-7 1991; cited from earlier work
# HIV-infected cells = details: Hamamoto et al. 1989; cited from earlier work
molecule,measurement,setting,value
"COc1ccc2c(c1)c(OC(C)C)c(C(N)=O)[s+]2[O-] (stereo not drawn) [Test Compound B, 5-methoxy-3-(1-methylethoxy)benzothiophene-2-carboxamide-, 1-oxide]",inhibition at 0.035 µM,"[1]; Human immunodeficiency virus 1, dilution 1:10 6 (A 19.5 nM; B 35.0 nM), TNF-α 20 U/ml, read-out: percent inhibition of the reverse transcriptase activity",0%
same,inhibition at 17.75 µM,"[1]; Human immunodeficiency virus 1, dilution 1:2000 (A 10.0 μM; B 17.75 μM), TNF-α 20 U/ml, read-out: percent inhibition of the reverse transcriptase activity",72.9%
same,inhibition at 8.88 µM,"[1]; Human immunodeficiency virus 1, dilution 1:4000 (A 5.0 μM; B 8.88 μM), TNF-α 20 U/ml, read-out: percent inhibition of the reverse transcriptase activity",44%
same,inhibition at 4.44 µM,"[1]; Human immunodeficiency virus 1, dilution 1:8000 (A 2.5 μM; B 4.44 μM), TNF-α 20 U/ml, read-out: percent inhibition of the reverse transcriptase activity",26.4%
same,inhibition at 2.22 µM,"[1]; Human immunodeficiency virus 1, dilution 1:16,000 (A 1.25 μM; B 2.22 μM), TNF-α 20 U/ml, read-out: percent inhibition of the reverse transcriptase activity",18.2%
same,inhibition at 1.11 µM,"[1]; Human immunodeficiency virus 1, dilution 1:32,000 (A 0.62 μM; B 1.11 μM), TNF-α 20 U/ml, read-out: percent inhibition of the reverse transcriptase activity",19.6%
same,inhibition at 0.55 µM,"[1]; Human immunodeficiency virus 1, dilution 1:64,000 (A 0.31 μM; B 0.55 μM), TNF-α 20 U/ml, read-out: percent inhibition of the reverse transcriptase activity",0.68%
same,inhibition at 0.28 µM,"[1]; Human immunodeficiency virus 1, dilution 1:128,000 (A 0.16 μM; B 0.28 μM), TNF-α 20 U/ml, read-out: percent inhibition of the reverse transcriptase activity",3.67%
same,inhibition at 0.14 µM,"[1]; Human immunodeficiency virus 1, dilution 1:256,000 (A 78.0 nM; B 0.14 μM), TNF-α 20 U/ml, read-out: percent inhibition of the reverse transcriptase activity",11.5%
same,inhibition at 0.07 µM,"[1]; Human immunodeficiency virus 1, dilution 1:512,000 (A 39.0 nM; B 70.0 nM), TNF-α 20 U/ml, read-out: percent inhibition of the reverse transcriptase activity",1.55%
same,anti-induction activity in the OM-10.1 cell system,[1]; TNF-α induced,appeared to have anti-induction activity
same,inhibition of HIV-1 activation,[1]; concentrations between 10 and 1 μM,effective at substantially inhibiting HIV-1 activation
same,mean reverse transcriptase cpm values,"[1]; dilution 1:10 6 (A 19.5 nM; B 35.0 nM), TNF-α 20 U/ml","30,025 cpm"
same,stimulation index (SI) value of the reverse transcriptase activity,[1]; dilution 1:10 6 (A 19.5 nM; B 35.0 nM),8.28
same,mean reverse transcriptase cpm values,"[1]; dilution 1:2000 (A 10.0 μM; B 17.75 μM), TNF-α 20 U/ml","7,725 cpm"
same,stimulation index (SI) value of the reverse transcriptase activity,[1]; dilution 1:2000 (A 10.0 μM; B 17.75 μM),2.13
same,mean reverse transcriptase cpm values,"[1]; dilution 1:4000 (A 5.0 μM; B 8.88 μM), TNF-α 20 U/ml","15,984 cpm"
same,stimulation index (SI) value of the reverse transcriptase activity,[1]; dilution 1:4000 (A 5.0 μM; B 8.88 μM),4.41
same,mean reverse transcriptase cpm values,"[1]; dilution 1:8000 (A […]; B 4.44 μM), TNF-α 20 U/ml","21,009 cpm"
same,stimulation index (SI) value of the reverse transcriptase activity,[1]; dilution 1:8000 (A […]; B 4.44 μM),5.80
same,mean reverse transcriptase cpm values,"[1]; dilution 1:16,000 (A 1.25 μM; B 2.22 μM), TNF-α 20 U/ml","23,336 cpm"
same,stimulation index (SI) value of the reverse transcriptase activity,"[1]; dilution 1:16,000 (A 1.25 μM; B 2.22 μM)",6.44
same,mean reverse transcriptase cpm values,"[1]; dilution 1:32,000 (A 0.62 μM; B 1.11 μM), TNF-α 20 U/ml","22,931 cpm"
same,stimulation index (SI) value of the reverse transcriptase activity,"[1]; dilution 1:32,000 (A 0.62 μM; B 1.11 μM)",6.33
same,mean reverse transcriptase cpm values,"[1]; dilution 1:64,000 (A 0.31 μM; B 0.55 μM), TNF-α 20 U/ml","28,334 cpm"
same,stimulation index (SI) value of the reverse transcriptase activity,"[1]; dilution 1:64,000 (A 0.31 μM; B 0.55 μM)",7.82
same,mean reverse transcriptase cpm values,"[1]; dilution 1:128,000 (A 0.16 μM; B 0.28 μM), TNF-α 20 U/ml","27,480 cpm"
same,stimulation index (SI) value of the reverse transcriptase activity,"[1]; dilution 1:128,000 (A 0.16 μM; B 0.28 μM)",7.58
same,mean reverse transcriptase cpm values,"[1]; dilution 1:256,000 (A 78.0 nM; B 0.14 μM), TNF-α 20 U/ml","25,257 cpm"
same,stimulation index (SI) value of the reverse transcriptase activity,"[1]; dilution 1:256,000 (A 78.0 nM; B 0.14 μM)",6.97
same,mean reverse transcriptase cpm values,"[1]; dilution 1:512,000 (A 39.0 nM; B 70.0 nM), TNF-α 20 U/ml","28,085 cpm"
same,stimulation index (SI) value of the reverse transcriptase activity,"[1]; dilution 1:512,000 (A 39.0 nM; B 70.0 nM)",7.75
same,percent CD4-positive cells,"OM-10.1 cells; 0.5 μM, 24 hours",5.3%
same,percent CD4-positive cells,"OM-10.1 cells; 0.5 μM, 48 hours",20.6%
same,percent CD4-positive cells,"OM-10.1 cells; 0.5 μM, 72 hours",47.9%
same,percent CD4-positive cells,"OM-10.1 cells; 0.5 μM, 96 hours",75.1%
same,percent CD4-positive cells,"OM-10.1 cells; 0.5 μM, T-0 (after 24 hours TNF-α, before compound)",4.0%
same,percent CD4-positive cells,"OM-10.1 cells; 0.5 μM, T-24 (baseline, before TNF-α and compound)",89.0%
same,percent CD4-positive cells,"OM-10.1 cells; 10 μM, 24 hours",33.5%
same,percent CD4-positive cells,"OM-10.1 cells; 10 μM, 48 hours",96.5%
same,percent CD4-positive cells,"OM-10.1 cells; 10 μM, 72 hours",97.6%
same,percent CD4-positive cells,"OM-10.1 cells; 10 μM, 96 hours",98.7%
same,percent CD4-positive cells,"OM-10.1 cells; 10 μM, T-0 (after 24 hours TNF-α, before compound)",4.0%
same,percent CD4-positive cells,"OM-10.1 cells; 10 μM, T-24 (baseline, before TNF-α and compound)",89.0%
"Cc1cn([C@H]2C[C@H](F)[C@@H](CO)O2)c(=O)[nH]c1=O [3'-fluoro-3'-deoxythymidine (FLT), 3'-fluoro-3'-deoxythymidine]",inhibition of the activation of HIV-1,[2],modest inhibitors of the activation of HIV-1
CCCCCCCCCCCCCC(=O)O[C@@H]1[C@@H](C)[C@@]2(O)[C@@H](C=C(CO)C[C@]3(O)C(=O)C(C)=C[C@@H]23)[C@@H]2C(C)(C)[C@]12OC(C)=O [12-O-tetradecanoyl-phorbol-13-acetate],CD4 down regulation and viral expression,HIV-infected cells,mediates CD4 down regulation and viral expression in HIV-infected cells
CC(=O)N(O)CCCCCNC(=O)CCC(=O)N(O)CCCCCNC(=O)CCC(=O)N(O)CCCCCN [desferrioxamine],inhibition of the activation of HIV-1,[2],modest inhibitors of the activation of HIV-1
B1,inhibition of the activation of HIV-1,[2],modest inhibitors of the activation of HIV-1

# Reference: patent US5444085A, “Methods of inhibiting HIV and inhibiting the activation of HIV” (Warner-Lambert Company, priority 1994, dated 1995)
